Source: PubChem BioAssay (NCI)
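Interpolation was linear, between the two tested concentrations surrounding the appropriate level; five concentrations were tested over 48 hours in 96-well plates. At the GI50, growth is halved. TGI is the concentration that stops growth completely.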

Assays:
Test in all cases: DTP human tumour cell line panel, 48 h
UO-31 renal = tested on: UO-31 renal
LOX IMVI melanoma = tested on: LOX IMVI melanoma
MALME-3M melanoma = tested on: MALME-3M melanoma
SF-539 CNS = tested on: SF-539 CNS
UACC-62 melanoma = tested on: UACC-62 melanoma
NCI-H226 lung = tested on: NCI-H226 lung
K-562 leukemia = tested on: K-562 leukemia
KM12 colon = tested on: KM12 colon
SF-295 CNS = tested on: SF-295 CNS
BT-549 breast = tested on: BT-549 breast

SMILES | TGI (UO-31 renal) [µM] | TGI (LOX IMVI melanoma) [µM] | TGI (MALME-3M melanoma) [µM] | TGI (SF-539 CNS) [µM] | TGI (UACC-62 melanoma) [µM] | TGI (NCI-H226 lung) [µM] | TGI (K-562 leukemia) [µM] | TGI (KM12 colon) [µM] | TGI (SF-295 CNS) [µM] | GI50 (UO-31 renal) [µM] | GI50 (LOX IMVI melanoma) [µM] | GI50 (UACC-62 melanoma) [µM] | GI50 (NCI-H226 lung) [µM] | GI50 (K-562 leukemia) [µM] | GI50 (KM12 colon) [µM] | GI50 (BT-549 breast) [µM] | TGI (BT-549 breast) [µM] | GI50 (SF-295 CNS) [µM]
Cc1ccc(S(=O)OC2c3ccccc3Cc3ccccc32)cc1 (stereo not given) | 45.7 | 28.8 | 26.7 | 40.2 | 31.8 | 37.1 | 62.1 | 39.2 | 62.6 | – | – | – | – | – | – | – | – | –
COC(=O)CCC(=O)C(CC(=O)OC)C(=O)CCC(=O)NCCc1ccccc1 (stereo not given) | > 100 | > 100 | > 100 | > 100 | > 100 | > 100 | > 100 | > 100 | > 100 | – | – | – | – | – | – | – | – | –
O=C(O)COc1ccc2c3c1C(=O)CCC3CO2 (stereo not given) | > 100 | > 100 | > 100 | > 100 | > 100 | – | > 100 | > 100 | > 100 | – | – | – | – | – | – | – | – | –
O=C(O)c1ccc(NCn2nc(-c3ccccc3O)oc2=S)cc1O | > 100 | > 100 | – | – | > 100 | > 100 | > 100 | > 100 | > 100 | > 100 | 25.4 | 39.8 | 21 | > 100 | > 100 | > 100 | > 100 | > 100
CNC(=O)N(CCCC(NC(C)=O)C(=O)NCc1ccccc1)Cc1ccccc1 (stereo not given) | > 100 | > 100 | > 100 | > 100 | > 100 | > 100 | > 100 | > 100 | > 100 | – | – | – | – | – | – | – | – | –
Cc1cc2c(=O)cc(-c3ccc(C(=O)O)cc3)oc2c(C(N)=O)c1C | > 100 | > 100 | > 100 | > 100 | > 100 | – | > 100 | > 100 | > 100 | – | – | – | – | – | – | – | – | –
COc1ccc(C(=O)O[C@@H]2CCN3CC[C@H](C)[C@H]23)cc1 | > 100 | > 100 | – | > 100 | > 100 | > 100 | – | > 100 | > 100 | – | – | – | – | – | – | – | > 100 | –
O=C1C2=C(c3ccccc31)C(c1ccccc1Cl)NC(=S)N2 (stereo not given) | > 100 | – | > 100 | > 100 | > 100 | > 100 | > 100 | > 100 | > 100 | – | – | – | – | – | – | – | – | –
